Experiments:
SR = conditions: cited from earlier work
A498 = conditions: A498, Renal, cited from earlier work
MOLT-4 = conditions: MOLT-4, Leukemia, cited from earlier work
TK-10 = conditions: TK-10, Renal, cited from earlier work
recombinant AOR = biological target: T1, recombinant AOR (Rattus norvegicus, UniProt P97584, Q160G/Q263G/Q264G/Q276G); assay: LC/MS/MS of enzymatic and nonenzymatic GSH adducts; format: biochemical; conditions: incubations with AOR, GSH and NADPH, 1 h, 37° C.
T1 construct: made in house
Protocol: High Performance Liquid Chromatography with Tandem Mass Spectrometry (LC/MS/MS) of GSA Adducts. […] These reactions were incubated at 37° C. for 1 h. Controls lacking NAFPH were performed. Reactions were stopped and deproteinized with addition of 400 μl of ice-cold acetonitrile, spun at 3500×g for 10 min at 4° C., and the supernatants were evaporated to dryness under vacuum. Residual GSH and NADPH cofactors were removed using an Oasis C18 sample prep column (Waters Chromatography). Adducts were eluted with methanol, evaporated to dryness under vacuum, resuspended in […] of 0.1% acetic acid, and detected using liquid chromatography electrospray ionization tandem mass spectrometry performed in the positive ion mode. […] A flow rate of 0.1 ml/min and gradient of 0% buffer D (70% acetic acid (0.1%):30% acetonitrile) to 100% buffer E (20% acetic acid (0.1%):80% acetonitrile) over 30 min were used to resolve the compounds. Adducts were detected by monitoring for selected molecular ions or characteristic molecular fragments after MS/MS. Molecular fragments were obtained with 35% relative collusion energy.
Measuring GSH adduction is a commonly used technique for estimating covalent protein binding, and thus cytotoxicity, of a drug (Baillie and Kassahun, 2001). The nucleophilic thiol moiety of GSH effectively scavenges electrophilic molecules and its large size and charge prevent it from entering the active site of most enzymes. […] Daughter ions of adducts, which represent the loss of water (−18 m/z) or […] (−129 m/z), were common and monitored for in these experiments following MS/MS.
Enzymatic reduction occurred in incubations containing recombinant AOR, NADPH, and GSH, while companion nonenzymatic reductions lacked NADPH. […] However the NE irofulven-GSH adduct (FIG. 5B) was detected only after monitoring for a daughter ion (M+—H2)=536 m/z) and was 42-fold less abundant than the E adduct. […] Contrary to findings with irofulven, a great deal of NE illudin M-GSH adduct was detected in NADPH-deficient incubations.

SF-539 = conditions: SF-539, Central Nervous System, cited from earlier work
IGROVI = conditions: cited from earlier work
SW-620 = conditions: SW-620, Colon, cited from earlier work
HCT-116 = conditions: HCT-116, Colon, cited from earlier work
OVCAR-4 = conditions: OVCAR-4, Ovarian, cited from earlier work
UACC-257 = conditions: UACC-257, Melanoma, cited from earlier work
HS 578T = conditions: cited from earlier work
EKVX = conditions: cited from earlier work
ACHN = conditions: Renal; cited from earlier work

T1 sequence (P97584 whole entry Q160G/Q263G/Q264G/Q276G): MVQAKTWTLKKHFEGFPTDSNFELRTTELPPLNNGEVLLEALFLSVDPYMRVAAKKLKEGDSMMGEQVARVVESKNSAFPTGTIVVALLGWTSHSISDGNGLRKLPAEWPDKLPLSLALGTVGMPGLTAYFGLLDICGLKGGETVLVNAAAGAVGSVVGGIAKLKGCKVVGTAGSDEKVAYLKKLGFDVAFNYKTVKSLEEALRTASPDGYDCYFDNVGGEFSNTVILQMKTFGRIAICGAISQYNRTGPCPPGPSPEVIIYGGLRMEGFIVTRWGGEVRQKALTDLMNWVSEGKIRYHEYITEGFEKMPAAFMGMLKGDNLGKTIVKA

CC1=C(CO)C2=C(C)C3(CC3)[C@@](C)(O)C(=O)C2=C1 [Irofulven, 6-hydroxymethylacylfulvene]
GI50 (SR; Leukemia): 794 nM
TGI (SR; Leukemia): 1.00E−04
log(GI50) (SR; Leukemia): −6.1
log(TGI) (SR; Leukemia): −4
CC50 (SR; read-out: LC50, Leukemia): ≥ 100000 nM
GI50 (A498): 200 nM
TGI (A498): 5.01E−07
log(GI50) (A498): −6.7
log(LC50) (A498): −5.7
log(TGI) (A498): −6.3
CC50 (A498; read-out: LC50): 2000 nM
GI50 (MOLT-4): 794 nM
TGI (MOLT-4): 2.00E−05
log(GI50) (MOLT-4): −6.1
log(TGI) (MOLT-4): −4.7
CC50 (MOLT-4; read-out: LC50): ≥ 100000 nM
GI50 (TK-10): 251 nM
TGI (TK-10): 1.26E−06
log(GI50) (TK-10): −6.6
log(TGI) (TK-10): −5.9
CC50 (TK-10; read-out: LC50): ≥ 100000 nM
abundance of E (enzymatic) GSH adduct over NE (nonenzymatic) adduct (recombinant AOR): 42 fold
GI50 (SF-539): 158 nM
TGI (SF-539): 5.01E−07
log(GI50) (SF-539): −6.8
log(LC50) (SF-539): −6.2
log(TGI) (SF-539): −6.3
CC50 (SF-539; read-out: LC50): 631 nM
GI50 (IGROVI; Ovarian): 158 nM
TGI (IGROVI; Ovarian): 5.01E−07
log(GI50) (IGROVI; Ovarian): −6.8
log(LC50) (IGROVI; Ovarian): −5.2
log(TGI) (IGROVI; Ovarian): −6.3
CC50 (IGROVI; read-out: LC50, Ovarian): 6310 nM
GI50 (SW-620): 631 nM
TGI (SW-620): 3.16E−05
log(GI50) (SW-620): −6.2
log(TGI) (SW-620): −4.5
CC50 (SW-620; read-out: LC50): ≥ 100000 nM
GI50 (HCT-116): 200 nM
TGI (HCT-116): 5.01E−07
log(GI50) (HCT-116): −6.7
log(LC50) (HCT-116): −4.5
log(TGI) (HCT-116): −6.3
CC50 (HCT-116; read-out: LC50): 31600 nM
GI50 (OVCAR-4): 251 nM
TGI (OVCAR-4): 6.31E−07
log(GI50) (OVCAR-4): −6.6
log(LC50) (OVCAR-4): −4.6
log(TGI) (OVCAR-4): −6.2
CC50 (OVCAR-4; read-out: LC50): 25100 nM
GI50 (UACC-257): 251 nM
TGI (UACC-257): 5.01E−07
log(GI50) (UACC-257): −6.6
log(LC50) (UACC-257): −5.3
log(TGI) (UACC-257): −6.3
CC50 (UACC-257; read-out: LC50): 5010 nM
GI50 (HS 578T; Breast): 316 nM
TGI (HS 578T; Breast): 1.58E−06
log(GI50) (HS 578T; Breast): −6.5
log(LC50) (HS 578T; Breast): −4.7
log(TGI) (HS 578T; Breast): −5.8
CC50 (HS 578T; read-out: LC50, Breast): 20000 nM
GI50 (EKVX; Non-Small Cell Lung): 200 nM
TGI (EKVX; Non-Small Cell Lung): 5.01E−07
log(GI50) (EKVX; Non-Small Cell Lung): −6.7
log(LC50) (EKVX; Non-Small Cell Lung): −5.4
log(TGI) (EKVX; Non-Small Cell Lung): −6.3
CC50 (EKVX; read-out: LC50, Non-Small Cell Lung): 3980 nM
GI50 (ACHN): 251 nM
TGI (ACHN): 1.00E−06
log(GI50) (ACHN): −6.6
log(TGI) (ACHN): −6
